In patent US20230203060A1 (GENFLEET THERAPEUTICS (SHANGHAI) INC., priority 2020, published 2023):
pIC50: −log10 of the molar value. Counter-ions that a name gives are not always drawn.

Tested on: KRAS G12C mutant NCI-H358 cells
Test: Cell proliferation inhibition experiment, 3D spheroid, CellTiter-Glo, NCI-H358
Type: cell-based, human
Conditions: Homo sapiens, NCI-H358, 120 h, NCI-H358 (KRAS G12C mutant) 3D spheroid, 5 days with compound, CellTiter-Glo; read-out: H358 IC50
From the text: Raw materials and instruments: NCI-H358 purchased from ATCC; article number: CRL-5807; batch number: 70010825; A549 purchased from ATCC; article number: CCL-185; batch number: 70007820; RPMI1640 purchased from Gibco; article number: 11875-093; batch number: 2152748; F-12K purchased from Gibco; article number: 21127-022; batch number: 2185853; FBS purchased from Gibco; article number: 10099-141; batch number: 2109290CP; PS purchased from Gibco; article number: 15140-122; batch number: 2145451; Trypsin-EDTApurchased from Gibco; article number: 25200-072; batch number: 2085552; CellTiter Glo working solution purchased from Promega; article number: G9683; batch number: 398478; DMSO purchased from VWR AMRESCO; article number: 0231-500ML; batch number: 18C0656168; 384-well spheroid plate purchased from Corning; article number: 3830; batch number: 27519032; white opaque 384-well plate purchased from Corning; article number: 3570; batch number: 26819023; microplate reader purchased from PerkinElmer; model: Envision MLD2105-0020; equipment number 1050369.
NCI-H358 is a KRAS G12C mutant human non-small cell lung cancer cell line, cultured in 10% FBS RPMI-1640+1% PS culture medium; and A549 is a KRAS G12S mutant human lung adenocarcinoma cell line, cultured in 10% FBS F-12K+1% PS culture medium. Cells at logarithmic growth stage were taken, digested with trypsin-EDTA, then collected and counted. H358 was adjusted to 1.8 E4 cells/mL with 2% FBS RPMI-1640 culture medium, and A549 was adjusted to 8.9 E3 cells/mL with 2% FBS F-12K culture medium; 800 (45 μL) H358 or 400 (45 μL) A549 were inoculated respectively in a 384-well spheroid plate and cultured overnight to establish a 3D cell model. A 3.16-fold gradient concentration stock solution of 1000× compound was prepared with DMSO, and diluted 100-fold to 10× compound stock solution with 2% FBS culture medium. On the second day after cell inoculation, 5 μL of 10× compound stock solution was added to each cell culture well, with a final concentration of 1× and a DMSO content of 0.1%. DMSO was used as experimental control (control), and 2% FBS culture medium was used as blank control (blank). After 5 days of compound cell culture, 25 μL of CellTiter-Glo working solution was added to each well, mixed well at 400 rpm and incubated for 30 minutes. After standing at room temperature for 30 minutes, 40 μL of the mixed solution was transferred to a white opaque 384-well plate, and the luminescence chemiluminescence value was read with a microplate reader. The cell proliferation inhibition rate IR (%)=(RLU control -RLU compound)/(RLU control -RLU blank) x100% was calculated. The gradient dilution concentration of the compound and the corresponding cell proliferation inhibition rate were fitted by Prism 6 four-parameter method, and the IC50 value was calculated. The inhibitory activity of the compounds prepared in the above embodiments of the present disclosure on KRAS G12C mutant NCI-H358 cells was 0.0001 μM to 0.5 μM; the inhibitory activity of some compounds on KRAS G12C mutant NCI-H358 cells was 0.001 μM to 0.1 μM or 0.001 μM to 0.05 μM.

SMILES	pIC50
C=CC(=O)N1CCN2C(=O)C3=C(OC[C@H]2C1)C(C)=C(c1c(O)cccc1F)CN3N1C[C@@H](O)CC1(C)C (single isomer, unassigned) [Z336-1]	7.37
C=CC(=O)N1CCN2C(=O)c3c(N4CCC[C@]4(C)CO)nc(-c4c(O)cccc4F)c(Cl)c3OC[C@H]2C1 [Z279-1]	6.73
C=CC(=O)N1CCN2C(=O)c3c(N4[C@H](C)COC[C@@H]4C)nc(-c4c(O)cccc4F)c(Cl)c3OC[C@H]2C1 [Z252-1, (6aR)-8-acryloyl-1-(3R,5S-dimethylmorpholino)-4-chloro-3-(2-fluoro-6-hydroxyphenyl)-6,6a,7,8,9, 10-hexahydro-12H-pyrazino[2,1-c]pyrido[3,4-f][1,4]oxazepin-12-one]	6.84
C=CC(=O)N1CCN2C(=O)c3c(C4=CCN(C)CC4C)nc(-c4c(O)cccc4F)c(Cl)c3OC[C@H]2C1 (stereo partly drawn) [Z304, (6aR)-8-acryloyl-4-chloro-1-(1,3-dimethyl-1,2,3,6-tetrahydropyridin-4-yl)-3-(2-fluoro-6-hydroxyphenyl)-6,6a,7,8,9,10-hexahydro-12H-pyrazino[2,1-c]pyrido[3,4-f]oxazepin-12-one]	6.79
C=CC(=O)N1CCN2C(=O)c3c(N4CCN5CCC[C@H]5C4)nc(-c4c(O)cccc4F)c(Cl)c3OC[C@H]2C1 [Z317-1, (6aR)-8-acryloyl-4-chloro-3-(2-fluoro-6-hydroxyphenyl)-1-((S)-hexahydropyrrolo[1,2-a]pyrazin-2(1H)-yl)-6,6a,7,8,9,10-hexahydro-12H-pyrazino[2,1-c]pyrido[3,4-f][1,4]oxazepin-12-one]	7.27
C=CC(=O)N1CCN2C(=O)c3c(OCC4N(C)CCC4(C)C)nc(-c4c(O)cccc4F)c(Cl)c3OC[C@H]2C1 (stereo partly drawn) [Z110, (6aR)-8-acryloyl-4-chloro-1-((1,3,3-trimethyltetrahydropyrrol-2-yl)methoxy)-3-(2-fluoro-6-hydroxyphenyl)-6,6a,7,8,9,10-hexahydro-12H-pyrazino[2,1-c]pyrido[3,4-f][1,4]oxazepin-12-one]	7.35
C=CC(=O)N1CCN2C(=O)c3c(N4CCCC(C)C4C)nc(-c4c(O)cccc4F)c(Cl)c3OC[C@H]2C1 (stereo partly drawn) [Z99, (6aR)-8-acryloyl-4-chloro-1-(2,3-dimethylpiperidin-1-yl)-3-(2-fluoro-6-hydroxyphenyl)-6,6a,7,8,9,10-hexahydro-12H-pyrazino[2,1-c]pyrido[3,4-f][1,4]oxazepin-12-one]	7.58
C=CC(=O)N1CCN2C(=O)c3c(N4CCOCC45CCC5)nc(-c4c(O)cccc4F)c(Cl)c3OC[C@H]2C1 [Z90, (6aR)-8-acryloyl-4-chloro-3-(2-fluoro-6-hydroxyphenyl)-1-(8-oxa-5-azaspiro[3.5]nonan-5-yl)-6,6a,7,8,9,10-hexahydro-12H-pyrazino[2,1-c]pyrido[3,4-f][1,4]oxazepin-12-one]	7.72
C=CC(=O)N1CCN2C(=O)c3c(N4C[C@@H](C)N(C)[C@@H](C)C4)nc(-c4c(O)cccc4F)c(Cl)c3OC[C@H]2C1 [Z246, (6aR)-8-acryloyl-4-chloro-3-(2-fluoro-6-hydroxyphenyl)-1-((3S,5R)-3,4,5-trimethylpiperazin-1-yl)-6,6a,7,8,9,10-hexahydro-12H-pyrazino[2,1-c]pyrido[3,4-f][1,4]oxazepin-12-one]	7.46
C=CC(=O)N1CCN2C(=O)c3c(N4CCOC(C)(C)C4)nc(-c4c(C)ccc5[nH]ncc45)c(F)c3OC[C@H]2C1 [Z238, (6aR)-8-acryloyl-1-(2,2-dimethylmorpholino)-4-fluoro-3-(5-methyl-1H-indazol-4-yl)-6,6a,7,8,9,10-hexahydro-12H-pyrazino[2,1-c]pyrido[3,4-f][1,4]oxazepin-12-one]	6.55
C=CC(=O)N1CCN2C(=O)c3c(N4CCN(C5COC5)C[C@H]4C)nc(-c4c(O)cccc4F)c(Cl)c3OC[C@H]2C1 (single isomer, unassigned) [Z239-2]	7.25
C=CC(=O)N1CCN2C(=O)c3c(cc(-c4c(O)cccc4F)nc3N3CCOC(C)(C)C3)OC[C@H]2C1 [Z263, (6aR)-8-acryloyl-1-(2,2-dimethylmorpholino)-3-(2-fluoro-6-hydroxyphenyl)-6,6a,7,8,9,10-hexahydro-12H-pyrazino[2,1-c]pyrido[3,4-f][1,4]oxazepin-12-one]	7.16
C=CC(=O)N1CCN2C(=O)c3c(N4C[C@H](C)O[C@@H](C)C4)nc(-c4c(O)cccc4F)c(Cl)c3OC[C@H]2C1 [Z248-1, (6aR)-8-acryloyl-1-((2S,6S)-2,6-dimethylmorpholino)-4-chloro-3-(2-fluoro-6-hydroxyphenyl)-6,6a,7,8,9,10-hexahydro-12H-pyrazino[2,1-c]pyrido[3,4-f][1,4]oxazepin-12-one]	6.63
C=CC(=O)N1CCN2C(=O)c3c(N4Cc5cnn(C)c5[C@@H]4C)nc(-c4c(O)cccc4F)c(Cl)c3OC[C@H]2C1 (single isomer, unassigned) [Z292S, trifluoroacetate]	7.43
C=CC(=O)N1CCN2C(=O)c3c(N4Cc5nn(C)cc5[C@H]4C)nc(-c4c(O)cccc4F)c(Cl)c3OC[C@H]2C1 (single isomer, unassigned) [Z345-1]	7.34
C=CC(=O)N1CCN2C(=O)c3c(N4CCC45CCC5)nc(-c4c(O)cccc4F)c(Cl)c3OC[C@H]2C1 [Z309, (6aR)-8-acryloyl-4-chloro-3-(2-fluoro-6-hydroxyphenyl)-1-(1-azaspiro[3.3]heptan-1-yl)-6,6a,7,8,9,10-hexahydro-12H-pyrazino[2,1-c]pyrido[3,4-f][1,4]oxazepin-12-one]	6.54
C=CC(=O)N1CCN2C(=O)c3c(N4CCOCC4)nc(-c4nc(N)ccc4C(F)(F)F)c(Cl)c3OC[C@H]2C1 [Z267]	7.50
C=CC(=O)N1CCN2C(=O)c3c(N4C[C@H](O)CC4(C)C)nc(-c4c(O)cccc4F)c(F)c3OC[C@H]2C1 (single isomer, unassigned) [Z256-2]	7.57
C=CC(=O)N1CCN2C(=O)c3c(N4CCOCC4)nc(-c4c(O)cccc4F)c(F)c3OC[C@H]2C1 [Z329, (6aR)-8-acryloyl-1-(morpholino)-4-fluoro-3-(2-fluoro-6-hydroxyphenyl)-6,6a,7,8,9,10-hexahydro-12H-pyrazino[2,1-c]pyrido[3,4-f][1,4]oxazepin-12-one]	6.86
C=CC(=O)N1CCN2C(=O)c3c(N4C(C)COCC4C)nc(-c4c(O)cccc4F)c(Cl)c3OC[C@H]2C1 (stereo partly drawn) [Z252, (6aR)-8-acryloyl-1-(3,5-dimethylmorpholino)-4-chloro-3-(2-fluoro-6-hydroxyphenyl)-6,6a,7,8,9,10-hexahydro-12H-pyrazino[2,1-c]pyrido[3,4-f][1,4]oxazepin-12-one]	6.89
C=CC(=O)N1CCN2C(=O)c3c(N4CCOC(C)(C)C4)nc(-c4c(O)cccc4F)c(F)c3OC[C@H]2C1 [Z255, (6aR)-8-acryloyl-1-(2,2-dimethylmorpholino)-4-fluoro-3-(2-fluoro-6-hydroxyphenyl)-6,6a,7,8,9,10-hexahydro-12H-pyrazino[2,1-c]pyrido[3,4-f][1,4]oxazepin-12-one]	7.49
